Holding throughout (type): biochemical
The target of assay [1] is T1, Human PKK (Homo sapiens (Human), UniProt P03952). Briefly: Inhibition of PKK, endpoint assay (human PKK). The settings on record: substrate H-Pro-Phe-Arg-AMC, 1 h room temperature. As for the experimental part: Subsequently, PPACK II (Calbiochem) was added as a stop solution to achieve a final concentration of 1 μM and fluorescence was measured using an Envision Reader (PerkinElmer) with the wavelength excitation setting of 355 nm and the wavelength emission setting of 460 nm.

For assay [2], the target named is T1, Human PKK. Briefly: Inhibition of PKK (Ki), kinetic assay. Conditions: 24° C., IC50 corrected for KM. As for the experimental part: Measurements were performed in a kinetic interval every 2nd minute for 16 min using a Spectramax M5 (Molecular Devices) with the following settings of the wavelength excitation of 350 nm and wavelength emission of 450 nm. The number of the compound corresponds to the number of the Example in the experimental section.
The pIC50 values were then fitted using a four-parametric fitting procedure using GraphPad Prism (version 6; GraphPad Software, Inc.).
(§1) Where the IC50 is in molar and the KM value in mM.

Another assay deals with human TK1 (Homo sapiens (Human), UniProt P06870). Briefly: Inhibition of TK1 (Ki). Conditions: column head prints IC50, text above the table says Ki values. The protocol:
The ability of compounds of formula (I) to inhibit plasma kallikrein (PKK), Factor Xlla (FXIIa), Factor Xla (FXIa), Factor Xa (FXa), Factor Ila (alpha-thrombin; FIIa), plasmin, trypsin, tissue kallikrein 1 (TK1), Factor VIIa (FVIIa), or FVIIa complexed with Tissue Factor, phospholipids and CaCl2 (FVIIa/TF/PL/CaCl2) was determined using the following biochemical assays in assay buffer (100 mM Tris, 150 mM NaCL, adjusted to a pH of 7.8 with HCl, and containing 0.1% (w/v) BSA and 0.05% (v/v) Tween20) in the presence of 1% (v/v) DMSO: EVALUATION OF THE INHIBITION OF PKK USING AN ENDPOINT ASSAY Human PKK (0.01 U/mL; Enzyme Research Laboratories) or rat PKK (0.625 nM; produced in-house) was incubated for 1 h at room temperature with 0.10 μM fluorogenic substrate H-Pro-Phe-Arg-AMC (11295 from Bachem) and various concentrations of the test compound in assay buffer. Subsequently, PPACK II (Calbiochem) was added as a stop solution to achieve a final concentration of 1 μM and fluorescence was measured using an Envision Reader (PerkinElmer) with the wavelength excitation setting of 355 nm and the wavelength emission setting of 460 nm.
Prior to the assay, human TK1 (R&D Systems) was activated by incubation with human trypsin (Calbiochem) in a 1:10,000 ratio for 15 min at 37° C. For assaying TK1 inhibitory activity, activated TK1 (31.25 nM or 1 U/mL) was incubated at 24° C. with 0.1 mM fluorogenic substrate H-Pro-Phe-Arg-AMC (11295 from Bachem) and various concentrations of the test compound in assay buffer. Measurements were performed in a kinetic interval every 2nd minute for 16 min using a Spectramax M5 (Molecular Devices) with the following settings of the wavelength excitation of 350 nm and wavelength emission of 450 nm.
The average Vmax values for the time interval from 2 to 12 min after initiation of the assay (expressed as either delta OD/min for assays using a chromogenic substrate or delta RFU/min for assays using a fluorigenic substrate, respectively) were plotted versus the Log of the concentration in molar of the evaluated inhibitor compound. The pIC50 values were then fitted using a four-parametric fitting procedure using GraphPad Prism (version 6; GraphPad Software, Inc.). Respective Ki values were obtained by correction of the IC50 values for the respective KM value of the used substrate (see Table A for the obtained KM values of the used substrates) using the following formula: […]
as §1

This note sets out measurements from patent publication US10695334B2, “Heteroaromatic carboxamide derivatives as plasma kallikrein inhibitors” (Boehringer Ingelheim International GmbH, priority 2018, dated 2020).

Where only a bound is given, the exact number is not on record here.

human TK1, sequence (P06870 25-262): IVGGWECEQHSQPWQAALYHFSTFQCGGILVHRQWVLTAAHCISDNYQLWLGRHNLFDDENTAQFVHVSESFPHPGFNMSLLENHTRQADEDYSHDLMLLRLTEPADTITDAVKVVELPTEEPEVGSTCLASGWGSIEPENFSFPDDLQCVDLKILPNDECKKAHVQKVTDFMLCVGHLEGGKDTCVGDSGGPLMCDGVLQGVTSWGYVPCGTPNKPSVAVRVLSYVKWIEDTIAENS
T1 sequence (P03952 391-638): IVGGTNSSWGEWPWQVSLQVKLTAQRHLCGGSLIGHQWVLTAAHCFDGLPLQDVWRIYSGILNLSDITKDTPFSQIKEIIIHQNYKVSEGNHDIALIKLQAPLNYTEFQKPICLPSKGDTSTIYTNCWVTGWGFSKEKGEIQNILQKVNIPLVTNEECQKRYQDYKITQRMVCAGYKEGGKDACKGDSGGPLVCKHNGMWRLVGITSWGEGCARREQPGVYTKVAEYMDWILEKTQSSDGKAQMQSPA
T1 sequence (P03952 20-390 partner): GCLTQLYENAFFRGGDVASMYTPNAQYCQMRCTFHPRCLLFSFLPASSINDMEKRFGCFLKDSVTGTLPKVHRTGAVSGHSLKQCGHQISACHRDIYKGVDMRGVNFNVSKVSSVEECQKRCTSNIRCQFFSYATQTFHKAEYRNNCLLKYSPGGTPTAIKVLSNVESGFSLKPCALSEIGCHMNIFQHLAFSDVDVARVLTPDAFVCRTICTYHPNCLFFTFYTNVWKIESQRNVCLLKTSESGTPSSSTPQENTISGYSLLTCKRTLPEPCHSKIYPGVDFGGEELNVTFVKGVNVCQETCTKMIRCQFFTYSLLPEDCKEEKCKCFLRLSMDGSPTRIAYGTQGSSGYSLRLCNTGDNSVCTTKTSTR

What is called IC50 is the concentration needed to halve the response being measured. Higher therefore signals weaker potency in that assay. By Ki is commonly meant a dissociation constant, usually derived from enzyme kinetics or from competition with a known ligand. For `COCc1nn(Cc2ccc(N3CC4(CC4)C3)nc2C)cc1C(=O)N[C@@H]1CCc2c(C)n[nH]c21` [Example 22, 1-[(6-{5-Azaspiro[2.3]hexan-5-yl}-2-methylpyridin-3-yl)methyl]-3-(methoxymethyl)-N-[(6R)-3-methyl-1H,4H,5H,6H-cyclopenta[c]pyrazol-6-yl]-1H-pyrazole-4-carboxamide], the results for the IC50 against Human PKK [1] and against human TK1 were 2 nM and above 10000 nM, respectively. Besides, affinity at Human PKK [2] was put at a Ki of 0.1 nM.
Regarding `Cc1nc(N2CC3CC3C2)ccc1Cn1cc(C(=O)N[C@@H]2CCc3c(C)n[nH]c32)c(C(F)F)n1` (stereo partly drawn) [Example 14, 1-[(6-{3-Azabicyclo[3.1.0]hexan-3-yl}-2-methyl-pyridin-3-y)methyl]-3-(difluoromethyl)-N-[(6R)-3-methyl-1H,4H,5H,6H-cyclopenta[c]pyrazol-6-yl]-1H-pyrazole-4-carboxamide], the results for the half-inhibitory concentration (IC50) against Human PKK [1] and on human TK1 were 0.5 nM and above 10000 nM, respectively. Also, on Human PKK [2], the Ki was found to be 0.1 nM.
In the case of `Cc1nc(N2CC3(CC3)C2)ccc1Cn1cnc(C(=O)N[C@@H]2CCc3c(C)n[nH]c32)c1` [Example 88, 1-[(6-{5-Azaspiro[2.3]hexan-5-yl}-2-methylpyridin-3-yl)methyl]-N-[(6R)-3-methyl-2H,4H,5H,6H-cyclo-penta[c]pyrazol-6-yl]-1H-imidazole-4-carboxamide], the IC50 was 1 nM against Human PKK [1] and above 10000 nM against human TK1.
In the case of `Cc1nc(N2CC3CC3C2)ncc1Cn1cc(C(=O)N[C@@H]2CCc3c(C)n[nH]c32)c(C)n1` (stereo partly drawn) [Example 25, 1-[(2-{3-Azabicyclo[3.1.0]hexan-3-yl}-4-methyl-pyrimidin-5-yl)methyl]-3-methyl-N-[(6R)-3-methyl-1H,4H,5H,6H-cyclopenta[c]pyrazol-6-yl]-1H-pyrazole-4-carboxamide], the IC50 against Human PKK [1] is 3 nM; against human TK1 it was above 10000 nM.
On to `Cc1nc(N2CCC3(CC3)C2)ccc1Cn1cc(C(=O)N[C@@H]2CCc3c2n[nH]c3C)cn1` [Example 45, 1-[(6-{5-Azaspiro[2.4]heptan-5-yl]-2-methylpyridin-3-yl)methyl]-N-[(6R)-3-methyl-2H,4H,5H,6H-cyclopenta[c]pyrazol-6-yl]-1H-pyrazole-4-carboxamide], for which the half-inhibitory concentration (IC50) against Human PKK [1] is 4 nM; on human TK1, above 10000 nM.
Turning to `Cc1nc(N2CC3CC3C2)ccc1Cc1ccc(C(=O)N[C@@H]2CCc3c(C)n[nH]c32)[nH]1` (stereo partly drawn) [Example 109, 5-[(6-{3-Azabicyclo[3.1.0]hexan-3-yl}-2-methylpyridin-3-yl)methyl]-N-[(6R)-3-methyl-1H,4H,5H,6H-cyclopenta[c]pyrazol-6-yl]-1H-pyrrole-2-carboxamide], the figures for the half-inhibitory concentration (IC50) against Human PKK [1] and against human TK1 were 3 nM and above 10000 nM, respectively.
For `Cc1nc(N2CC3CC3C2)ccc1Cn1cc(C(=O)N[C@@H]2CCc3c(C)n[nH]c32)nn1` (stereo partly drawn) [Example 86, 1-[(6-{3-Azabicyclo[3.1.0]hexan-3-yl}-2-methylpyridin-3-yl)methyl]-N-[(6R)-3-methyl-1H,4H,5H,6H-cyclopenta[c]pyrazol-6-yl]-1H-1,2,3-triazole-4-carboxamide] the same measures were 0.4 nM and above 10000 nM.
In the same order, the values of `Cc1nc(N2CC3CC3C2)ccc1Cn1cnc(C(=O)N[C@@H]2CCc3c2n[nH]c3C)c1` (stereo partly drawn) [Example 90, 1-[(6-{3-Azabicyclo[3.1.0]hexan-3-yl}-2-methyl-pyridin-3-yl)methyl]-N-[(6R)-3-methyl-2H,4H,5H,6H-cyclopenta[c]pyrazol-6-yl]-1H-imidazole-4-carboxamide] are 0.8 nM and above 10000 nM.
For the compound `Cc1nc(N2CC3C(C2)C3(F)F)ccc1Cn1cnc(C(=O)N[C@@H]2CCc3c2n[nH]c3C)c1` (stereo partly drawn) [Example 89, 1-[(6-{6,6-Difluoro-3-azabicyclo[3.1.0]hexan-3-yl}-2-methylpyridin-3-yl)methyl]-N-[(6R)-3-methyl-2H,4H,5H,6H-cyclopenta[c]pyrazol-6-yl]-1H-imidazole-4-carboxamide], the IC50 against Human PKK [1] is 0.6 nM; on human TK1 it was above 10000 nM.
In the same order, the values of `Cc1nc(N2CC3C(C2)C3(F)F)ncc1Cn1cnc(C(=O)N[C@@H]2CCc3c2n[nH]c3C)c1` (stereo partly drawn) [Example 92, 1-[(2-{6,6-Difluoro-3-azabicyclo[3.1.0]hexan-3-yl}-4-methylpyrimidin-5-yl)methyl]-N-[(6R)-3-methyl-2H,4H,5H,6H-cyclopenta[c]pyrazol-6-yl]-1H-imidazole-4-carboxamide] are 1 nM and above 10000 nM.
For `Cc1nc(N2CCC3CC3C2)ccc1Cn1cc(C(=O)N[C@@H]2CCc3c2n[nH]c3C)cn1` (stereo partly drawn) [Example 48, 1-[(6-{3-Azabicyclo[4.1.0]heptan-3-yl}-2-methylpyridin-3-yl)methyl]-N-[(6R)-3-methyl-2H,4H,5H,6H-cyclopenta[c]pyrazol-6-yl]-1H-pyrazole-4-carboxamide] the same measures were 5 nM and above 10000 nM.
In the case of `Cc1nc(N2C[C@@H]3[C@@H](CO)[C@@H]3C2)ccc1Cn1cc(C(=O)N[C@@H]2CCc3c(C)n[nH]c32)cn1` [Example 94, 1-({6-[(1R,5S,6R)-6-(hydroxymethyl)-3-azabicyclo[3.1.0]hexan-3-yl]-2-methylpyridin-3-yl}methyl)-N-[(6R)-3-methyl-1H,4H,5H,6H-cyclopenta[c]pyrazol-6-yl]-1H-pyrazole-4-carboxamide], the half-maximal inhibitory concentration (IC50) at Human PKK [1] was 2 nM; at human TK1, above 10000 nM.
Turning to `Cc1nc(N2CC3CC3C2)ccc1Cn1cc(C(=O)N[C@@H]2CCc3c(C)n[nH]c32)c(C)n1` (stereo partly drawn) [Example 19, 1-[(6-{3-Azabicyclo[3.1.0]hexan-3-yl}-2-methyl-pyridin-3-yl)methyl]-3-methyl-N-[(6R)-3-methyl-1H,4H,5H,6H-cyclopenta[c]pyrazol-6-yl]-1H-pyrazole-4-carboxamide], the half-inhibitory concentration (IC50) against Human PKK [1] was 1 nM; on human TK1, above 10000 nM. At Human PKK [2], this compound displayed an inhibition constant Ki of 0.3 nM.
For `Cc1nc(N2CC3CC3C2)ncc1Cn1cc(C(=O)N[C@@H]2CCc3c(C)n[nH]c32)c2cncnc21` (stereo partly drawn) [Example 23, 7-[(2-{3-Azabicyclo[3.1.0]hexan-3-yl}-4-methyl-pyrimidin-5-yl)methyl]-N-[(6R)-3-methyl-1H,4H,5H,6H-cyclopenta[c]pyrazol-6-yl]-7H-pyrrolo[2,3-d]pyrimidine-5-carboxamide] the same measures were 2 nM, above 10000 nM and 0.3 nM.
On to `Cc1nc(N2CC3(CC3)C2)ncc1Cn1cc(C(=O)N[C@@H]2CCc3c(C)n[nH]c32)c2cncnc21` [Example 33, 7-[(2-{5-Azaspiro[2.3]hexan-5-yl}-4-methyl-pyrimidin-5-yl)methyl]-N-[(6R)-3-methyl-1H,4H,5H,6H-cyclopenta[c]pyrazol-6-yl]-7H-pyrrolo[2,3-d]pyrimidine-5-carboxamide], for which the results for the IC50 against Human PKK [1] and against human TK1 were 3 nM and above 10000 nM, respectively.
For `Cc1nc(N2C[C@@H]3[C@@H](C)[C@@H]3C2)ccc1Cn1cc(C(=O)N[C@@H]2CCc3c2n[nH]c3C)cn1` [Example 79, N-[(6R)-3-Methyl-2H,4H,5H,6H-cyclopenta[c]pyrazol-6-yl]-1-({2-methyl-6-[(1R,5S,6R)-6-methyl-3-azabicyclo[3.1.0]hexan-3-yl]pyridin-3-yl}methyl)-1H-pyrazole-4-carboxamide] the same measures were 4 nM and above 10000 nM.
